Reference: patent US10670616B2, “Microchip for assay of blood properties, and device for assay of blood properties” (FUJIMORI KOGYO CO., LTD., priority 2014, dated 2020)

How the values were obtained:
blood coagulation [1] = assay: ROTEM analysis of blood coagulation in the absence of blood flow (Comparative Example 1); format: cell-based; conditions: 12 mM calcium chloride, 50 μg/ml CTI and 1 μg/ml Arixtra
Description: Blood was collected using a blood collection tube containing 3.2% sodium citrate, manufactured by Terumo Corporation. To the collected blood, 12 mM calcium chloride; 12 mM calcium chloride and 50 μg/ml CTI; or 12 mM calcium chloride, 50 μg/ml CTI, and 1 μg/ml Arixtra (synthetic pentasaccharide, GlaxoSmithKline K.K.); was/were added, and each resulting blood was analyzed by ROTEM (Tem International GmbH).

[2] = system: thrombus formation in blood; assay: Microchip pressure analysis, first channel, collagen + tissue thromboplastin, 8 μl/min (Example 4); format: cell-based; conditions: for integrated values of the pressures measured for 10 minutes, first channel: 8 μL/min
Description: (§1) A microchip having the same shape as in Examples 1 to 3 was prepared, and, in the second substrate 1b, a solution prepared by mixing 3 mg/ml collagen solution and 0.4 mg/ml tissue thromboplastin solution at a ratio of 1:1 was applied to the positions corresponding to the first reaction section 102 and the second reaction section 112 such that each applied area has a size of 6 mm×6 mm. The microchip prepared was used in the following experiment.
(§2) Blood was collected using a blood collection tube containing 3.2% sodium citrate, manufactured by Terumo Corporation. To the collected blood, 50 μg/ml (final concentration) CTI and 12 mM (final concentration) calcium chloride were added, and the resulting blood was used for perfusion of the first channel at a flow rate of 8 μl/min. (initial wall shear rate, about 660 s^−1) and the second channel at a flow rate of 24 μl/min. (initial wall shear rate, about 2000 s^−1) for 10 minutes while pressure analysis was carried out.
(§3) The same experiment as in Example 4-1 was carried out using (1) blood prepared by 2-fold dilution of the citrate blood with physiological saline; (2) blood prepared by adding a 0.5 U vWF (von Willebrand factor) formulation (CSL-Behring) to the 2-fold diluted blood of (1); (3) blood prepared by adding a 0.5 U PCC formulation (CSL-Behring) to the 2-fold diluted blood of (1); (4) blood prepared by adding 1 U heparin; or (5) blood prepared by adding 3 μg/ml Abciximab (Eli Lilly).
(§4) The integrated values of the pressures measured for 10 minutes, and the ratios between the first channel and the second channel are shown in the following Table 1.

[3] = system: white thrombi in the presence of blood flow; assay: Microchip pressure analysis with canine blood (Examples 5, 6); format: cell-based; conditions: 0.5 U danaparoid sodium, 24 and 8 μl/min, 10 minutes
Description: Canine blood was anticoagulated with 3.2% sodium citrate. Subsequently, 50 μg/ml (final concentration) CTI and 12 mM (final concentration) calcium chloride were added to the blood, and the resulting blood was used for perfusion of the first channel at a flow rate of 24 μl/min. and the second channel at a flow rate of 8 μl/min. for 10 minutes while pressure analysis was carried out.
An experiment was carried out in the same manner as in Example 5 except that 0.5 U danaparoid sodium was added to the dog sodium citrate blood.

blood coagulation [4] = assay: ROTEM analysis of canine blood coagulation in the absence of blood flow (Comparative Example 2); format: cell-based; conditions: 0.5 U/ml with 50 μg/ml CTI and 12 mM calcium chloride
Description: Canine blood was anticoagulated with 3.2% sodium citrate. Subsequently, 12 mM calcium chloride; 50 μg/ml (final concentration) CTI and 12 mM (final concentration) calcium chloride; or 0.5 U/ml (final concentration) danaparoid sodium, 50 μg/ml CTI, and 12 mM (final concentration) calcium chloride; was/were added to the blood, and blood coagulation in the absence of blood flow was analyzed by ROTEM (Tem International GmbH).

[5] = system: thrombus formation in blood; assay: Microchip pressure analysis, first channel, collagen + 0.4 mg/ml tissue thromboplastin, 8 μl/min (Examples 9, 10); format: cell-based; conditions: for areas under pressure, first channel: 8 μL/min
Description: (§5) The same microchip as in Examples 1 to 3 was used, except that, in the second substrate 1b, a solution prepared by mixing 3 mg/ml collagen and 0.4 mg/ml tissue thromboplastin solution at a ratio of 1:1 and a solution prepared by mixing 3 mg/ml collagen and 0.2 mg/ml tissue thromboplastin solution at a ratio of 1:1 were applied to the positions corresponding to the first reaction section 102 and the second reaction section 112, respectively, such that each applied area has a size of 6 mm×6 mm. The microchip prepared was used in the following experiment.
as §2, with “μl/min.” for “μl/min. (initial wall shear rate, about 660 s^−1)”, “μl/min.” for “μl/min. (initial wall shear rate, about 2000 s^−1)”
(§6) The same experiment as in Example 9 was carried out except that blood prepared by 2-fold dilution with physiological saline (Otsuka Pharmaceutical Co., Ltd.), blood prepared by 2-fold dilution with physiological saline+addition of 0.5 U/ml vWF (CSL-Behring), blood prepared by 2-fold dilution+addition of 0.5 U/ml PCC (CSL-Behring), blood prepared by addition of 1 U/ml heparin, or blood prepared by addition of 2 μg/ml abciximab, was used.

[6] = system: thrombus formation in blood; assay: Microchip pressure analysis, second channel, collagen + 0.2 mg/ml tissue thromboplastin, 24 μl/min (Examples 9, 10); format: cell-based; conditions: for areas under pressure, second channel: 24 μL/min
Description: as §5
as §2, with “μl/min.” for “μl/min. (initial wall shear rate, about 660 s^−1)”, “μl/min.” for “μl/min. (initial wall shear rate, about 2000 s^−1)”
as §6

[7] = system: thrombus formation in blood; assay: Microchip pressure analysis, second channel, collagen + tissue thromboplastin, 24 μl/min (Example 4); format: cell-based; conditions: for integrated values of the pressures measured for 10 minutes, second channel: 24 μL/min
Description: as §1, §2, §3, §4

[8] = system: thrombus formation (fibrin and platelets) in blood; assay: Microchip pressure analysis, first channel coated with collagen and tissue thromboplastin, recalcified citrate blood + CTI (Examples 1, 2); format: cell-based, human
Description: (§7) Two transparent substrates, that is, the first substrate 1a shown in FIG. 1(A) and the second substrate 1b shown in FIG. 1(B) (injection-molded products manufactured by Richell Corporation), were prepared. In the first substrate 1a, each of the channels 101 and 111 has a length of 20 mm, depth of 40 μm, and width of 2 mm, and each of the waste liquid storage sections has a length of 30 mm, depth of 1.3 mm, and width of 8.5 mm.
(§8) In the substrate 1a, 25 dividing walls each having a height of 40 μm, width of 40 μm, and length of 1.5 mm were arranged at equal intervals at positions corresponding to the first reaction section and the second reaction section of the first channel and the second channel, to provide channel dividing walls 109 and 119, respectively.
(§9) In the second substrate 1b, the holes corresponding to the inlets 104 and 114 were provided as penetrating holes each having an inner diameter of 2 mm and a circular cross-sectional shape. On the other hand, the holes corresponding to the air holes 105 and 115 were provided as penetrating holes each having an inner diameter of 1 mm and a circular cross-sectional shape. […]
(§10) Pumps 107 and 117 were connected to the reservoirs 106 and 116 through tubes, and the pressures applied to the pumps were measured using pressure sensors 108 and 118.

[9] = system: platelet-specific thrombus formation in blood; assay: Microchip pressure analysis, second channel coated with only collagen, hirudin-treated blood (Examples 1, 2); format: cell-based, human
Description: as §7, §8, §9, §10

[10] = undiluted blood, 1 U/ml heparin or 2 μg/ml abciximab, cont 393.8
[11] = undiluted blood, 1 U/ml heparin or 2 μg/ml abciximab, cont 438.2
[12] = undiluted blood, heparin 1 U/ml or abciximab 3 μg/ml, control 482
[13] = undiluted blood, heparin 1 U/ml or abciximab 3 μg/ml, control 409.3

Molecule: CO[C@H]1O[C@H](COS(=O)(=O)O)[C@@H](O[C@@H]2O[C@@H](C(=O)O)[C@@H](O[C@H]3O[C@H](COS(=O)(=O)O)[C@@H](O[C@@H]4O[C@H](C(=O)O)[C@@H](O[C@H]5O[C@H](COS(=O)(=O)O)[C@@H](O)[C@H](O)[C@H]5NS(=O)(=O)O)[C@H](O)[C@H]4O)[C@H](OS(=O)(=O)O)[C@H]3NS(=O)(=O)O)[C@H](O)[C@H]2OS(=O)(=O)O)[C@H](O)[C@H]1NS(=O)(=O)O [Arixtra]
- blood coagulation in the absence of blood flow (blood coagulation [1]): strongly suppresses blood coagulation
- change in the pressure waveform ([2]; Example 4-1 conditions, further addition of 0.5 μg/ml to the blood): no remarkable change in the pressure waveform

Molecule: danaparoid sodium
- white thrombi in the presence of blood flow [3]: hardly suppresses white thrombi
- blood coagulation in the absence of blood flow (blood coagulation [4]): remarkable delay of blood coagulation

Molecule: heparin [reference compound]
- areas under pressure, first channel [5, 10]: 12
- thrombus formation in the first channel ([5]; Examples 9 and 10): more strongly suppressed thrombus formation in the first channel
- areas under pressure, second channel [6, 11]: 198
- integrated values of the pressures measured for 10 minutes, second channel [7, 12]: 328.4
- integrated values of the pressures measured for 10 minutes, first channel [2, 13]: 127.3

Molecule: vWF: vWF (von Willebrand factor) formulation (CSL-Behring)
- areas under pressure, first channel ([5]; 50% dilution with physiological saline + 0.5 U/ml factor, 50% dil alone 195.8): 297.9
- areas under pressure, second channel ([6]; 50% dilution with physiological saline + 0.5 U/ml factor, 50% dil alone 110.2): 282.8
- integrated values of the pressures measured for 10 minutes, second channel ([7]; 50% dilution of citrate blood with physiological saline + 0.5 U/ml factor, 50% dilution alone 248.2): 381.1
- thrombi in the second channel ([7]; Example 4-2, 24 μl/min): remarkable recovery of thrombi in the second channel
- integrated values of the pressures measured for 10 minutes, first channel ([2]; 50% dilution of citrate blood with physiological saline + 0.5 U/ml factor, 50% dilution alone 203.9): 171.2

B1: abciximab (antibody, chains of the INN, looked up, V domains shown)
VH: EVQLQQSGTVLARPGASVKMSCEASGYTFTNYWMHWVKQRPGQGLEWIGAIYPGNSDTSYIQKFKGKAKLTAVTSTTSVYMELSSLTNEDSAVYYCTLYDGYYVFAYWGQGTLVTVSA
VL: EIVLTQSPVTLSVTPGDSVSLSCRASRDISNNLHWFQQTSHESPRLLIKYASQSMSGIPSRFSGSGSGTDFTLSINSVETEDFGMYFCQQTNSWPYTFGGGTKLEIK
modifications: Fab
- areas under pressure, first channel [5, 10]: 258
- thrombus formation in the first channel ([8]; Examples 1 and 2): suppressed
- integrated values of the areas below 60 kPa, first channel ([8]; citrate blood + 12 mM calcium chloride + 50 μg/ml CTI, 18 μl/min, 10 minutes, 10 mM aspirin + 100 μM AR-C66096, 3 μg/ml abciximab or 200 nM OS-1, control 457): 27.0
- thrombus formation in the second channel ([9]; Examples 1 and 2): suppressed
- integrated values of the areas below 60 kPa, second channel ([9]; hirudin blood, 18 μl/min, 10 minutes, 10 mM aspirin + 100 μM AR-C66096, 3 μg/ml abciximab or 200 nM OS-1, control 372): 5.4
- areas under pressure, second channel [6, 11]: 6
- thrombus formation in the second channel ([6]; Examples 9 and 10): more strongly suppressed thrombus formation in the second channel
- integrated values of the pressures measured for 10 minutes, second channel [7, 12]: 20.5
- integrated values of the pressures measured for 10 minutes, first channel [2, 13]: 394.8
